Measured values: patent publication US11173144B2, “Adrenergic receptor modulating compounds and methods of using the same” (The Board of Trustees of the Leland Stanford Junior …, priority 2016, dated 2021)

Experiments:
[1] = Plasma versus brain concentration after subcutaneous administration in mice; conditions: mouse, in vivo
Experimental: The concentration of selected compounds in plasma (FIG. 8A) versus concentration in brain (FIG. 8A) was assessed after administration in a mice. Briefly, mice are administered with selected compounds via subcutaneous route. Thirty minutes after the compound administration, plasma and brain samples are collected. Concentrations of the selected compounds in plasma and brains are determined by LC/MS/MS.

[2] = tested on: Transgenic mice expressing amyloid beta protein precursor (APP); assay: Morris water maze in transgenic mice expressing amyloid beta protein precursor (APP); type: in vivo; conditions: 10 mg/kg subcutaneous, chronic
Experimental: Mice are tested in a large water tank (178 cm in diameter; 22.0±1.5° C.) with a submerged 17 cm diameter circular platform (˜1 cm below the water surface and ˜50 cm away from the wall). Non-toxic tempera paints (Elmers) are used to make the water opaque. Privacy blinds with four different visual cues surrounded the tank and are located ˜150 cm from the center of the tank. Testing is performed under dim white light (40 Lux at the water surface). Activity is monitored with Ethovision via an overhead video system. Mice complete 4-6 days of hidden platform training (60 seconds to locate the platform when released from a pseudorandomized drop location). […] Successful leaming of MWM is determined by reduced escape latency and discriminative quadrant exploration during the probe trial. […]
Transgenic mice expressing amyloid beta protein precursor (APP) and wild-type mice were chronically administered with KSN01-01-18 (10 mg/kg, subcutaneous). Changes on body weight were recorded. Effects of KSN01-01-18 on cognitive function were evaluated in Morris water maze (MWM). […] Successful learning of MWM was determined by the gradual decrease in escape latency during the hidden platform training and discriminative quadrant exploration and latency to reach virtual platform during the probe trial.

[3] = Body weight changes on chronic administration in mice; type: in vivo; conditions: 10 mg/kg subcutaneous
Experimental: Transgenic mice expressing amyloid beta protein precursor (APP) and wild-type mice were chronically administered with KSN01-01-18 (10 mg/kg, subcutaneous). Changes on body weight were recorded. Effects of KSN01-01-18 on cognitive function were evaluated in Morris water maze (MWM). Briefly, In the MWM, a large water tank (178 cm in diameter) filled with water was used. A circular platform was placed about 1 cm below the water surface approximately 17 cm away from the wall in one 20 quadrant of the tank. Nontoxic tempera paints were used to make the water opaque. During the consecutive days of hidden platform training, mice were released from drop locations and given 60 sec to find the platform. Upon completion of the hidden platform training, the platform was removed and a 60-sec probe trial was conducted. Successful learning of MWM was determined by the gradual decrease in escape latency during the hidden platform training and discriminative quadrant exploration and latency to reach virtual platform during the probe trial.

C57BI/6J female mice = assay: 24 day administration, lung and heart weight and fibrosis; type: in vivo; conditions: 10 mg/kg for 24 days
Experimental: C57BI/6J female mice were administered with isoproterenol, KSN01-01-15, or KSN01-01-18 at 10 mg/kg for 24 days. After 24 days of treatment, mice were sacrificed, and lung and heart weight were measured. Hearts were then fixed in 10% formalin, and stained with Masson trichrome for evaluation of fibrosis.

SMILES: Cc1n[nH]c2cccc(OC[C@@H](O)CNCCNC(=O)N3CCOCC3)c12 [Compound 38]
- crossing the blood brain barrier [1]: not capable of crossing the blood brain barrier

SMILES: Cc1n[nH]c2cccc(OC[C@@H](O)CNCc3ccn(C)n3)c12 [Compound 92]
- cognitive function in Morris water maze (time to find the virtual platform) [2]: cognitive enhancing effects
- general toxicity as measured by changes in body weight [3]: does not cause general toxicity
- fibrotic changes in heart and heart weight (C57BI/6J female mice): did not induce these changes
- fibrotic changes in lung and lung weight (C57BI/6J female mice): did not induce these changes
- morphological changes in heart (C57BI/6J female mice): did not induce these changes
